Several values for one entry are separate records, joined by “and”; a condition that tells them apart may be missing. Equal entries are not always repeated.

The target of one series is T1, EGFR^WT (Homo sapiens, UniProt P00533).
T1 construct: Kinases domain of EGFR^L858R/T790M and EGFR^WT were expressed by using the Bac-to-Bac™ baculovirusexpression system; made in house
Put plainly: ELISA-based EGFR-TK enzymatic activity assay (WT). The class given is biochemical. As to conditions: mean ± SD, at least three determinations, read-out: Enzyme Inhibitory Activity (IC50, nM) WT. The procedure:
In vitro antiproliferation activities of the compounds were examined through using the sulforhodamine B (SRB) colourimetric assay.
(§1) The enzymatic activity assay was evaluated by using the well-established ELISA-based assay. […] The detailed experiment was performed according to the published literature.
(In general: In an ELISA, binding on a coated surface is turned into a signal by an enzyme label.)

The target of series [1] is T2, EGFR^L858R/T790M (Homo sapiens, UniProt P00533, L858R/T790M).
T2 construct: Kinases domain of EGFR^L858R/T790M and EGFR^WT were expressed by using the Bac-to-Bac™ baculovirusexpression system; made in house
T2 sequence (P00533 712-979 T790M/L858R limits assumed): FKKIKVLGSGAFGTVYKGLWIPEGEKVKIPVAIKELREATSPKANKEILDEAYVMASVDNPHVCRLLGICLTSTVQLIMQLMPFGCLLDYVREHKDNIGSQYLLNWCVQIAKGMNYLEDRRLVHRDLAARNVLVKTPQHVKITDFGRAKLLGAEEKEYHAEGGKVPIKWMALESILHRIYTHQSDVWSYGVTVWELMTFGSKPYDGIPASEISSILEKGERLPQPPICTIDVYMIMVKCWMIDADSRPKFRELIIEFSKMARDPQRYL
Put plainly: ELISA-based EGFR-TK enzymatic activity assay (dual mutant). As to conditions: for IC50: ELISA-based EGFR-TK assay, mean ± SD, at least three determinations, read-out: Enzyme Inhibitory Activity (IC50, nM) L858R/T790M; for Enzyme Selectivity WT:DM: ratio IC50 EGFR^WT : EGFR^L858R/T790M. The class given is biochemical. The procedure:
as §1

Series [2] has as its system A431 cells (expressing EGFR^WT). Briefly: Sulforhodamine B (SRB) cellular antiproliferation assay, A431. The class given is cell-based. As to conditions: Homo sapiens, A-431, 72 h, mean ± SD, read-out: Cellular Antiproliferative Activity (IC50, nM) A431. The source says:
(§2) Having explored potent inhibition and obvious selectivity of EGFR kinases by introduction of alkyl groups to C4-position to the 1,4-dihydro-2H-pyrimido[4,5-d][1,3]oxazin-2-one ring, we subsequently evaluated their anti-proliferative activities in H1975 cells (expressing EGFR^L858R/T790M) and A431 cells (expressing EGFR^WT) in vitro by using the sulforhodamine B (SRB) colourimetric assay. The anti-proliferative activities of our designed compounds against H1975 and A431 cell lines range from 135 nM to more than 9 μM and from 554 nM to more than 7 μM, respectively (Fig. 5). Additionally, the selectivity at the cellular level is from 0.7 to 9.4-fold.
(§3) In vitro cellular antiproliferation activities of the designed compounds against H1975 and A431 cell lines were examined by using the well-established sulforhodamine B (SRB) colorimetric assay. The detailed experiment was performed according to the published literature. Briefly, H1975 and A431 cells were seeded in 96-well plates, and allowed to adhere overnight followed by treated with gradient concentrations of the test compounds for 72 h. […] The IC50 values were obtained by using the Logit method and reported as the mean ± SD from three independent determinations.

Series [3] deals with H1975 cells (expressing EGFR^L858R/T790M). Put plainly: Sulforhodamine B (SRB) cellular antiproliferation assay, H1975. The class given is cell-based. As to conditions: for IC50: Homo sapiens, NCI-H1975, SRB assay, 72 h, mean ± SD, read-out: Cellular Antiproliferative Activity (IC50, nM) H1975; for Cellular Selectivity A431:H1975: ratio IC50 A431 : H1975.
From the text: as §2, §3
A general note: Sulforhodamine B stains cellular protein and so reports cell mass.

For series [4], the system named is phosphorylation of EGFR^L858R/T790M, AKT and ERK in H1975 cells. Put plainly: Western blot analysis of EGFR and downstream signaling phosphorylation, H1975. The class given is cell-based. As to conditions: 2 h incubation, EGF 50 ng/mL 10 min. As for the experimental part: (§4) Cells were starved in serum-free medium for 24 h before incubation of indicated concentrations of compounds 20a and 8 (positive control) and harvested after stimulation by EGF (50 ng/mL) for 10 min. Phosphorylation of EGFR and downstream signaling substrates was examined by Western Blot analysis. Blot source data is provided in Supplementary Fig. S1.
(§5) Western blot analysis was performed with standard procedures. Briefly, H1975 and A431 cell lines were seeded in six-well plates, starved in serum-free medium for 24 h, followed by incubation for 2 h in the presence of different concentrations of compounds 20a and 8 (as positive control). Cells were stimulated by the addition of EGF (50 ng/mL, R&D Systems, US) for 10 min, then washed with PBS and lysed in SDS lysis buffer. Antibodies against p-EGFR (Y1068; #3777 S), EGFR (#4267 S), p-ERK (T202/Y204; #4370 L), ERK (#4695 S), p-AKT (Ser473), AKT and Tubulin were used (Cell Signaling Technologies, Cambridge, MA).

The test system of series [5] is activation of EGFR^WT in A431 cells. Put plainly: Western blot analysis of EGFR phosphorylation, A431. The format is cell-based. As for the experimental part:
as §4, §5

The subject of series [6] is H1975 xenograft driven by EGFR^L858R/T790M. Briefly: In vivo antitumor efficacy, H1975 NSCLC xenograft mouse model. On the set-up: species or system nude mice. As to conditions: 14 days; for tumor growth inhibition (TGI): 50 mg/kg orally once per day, final day vs vehicle, P < 0.05. As for the experimental part:
H1975 cells were implanted as described in Methods. […] H1975 xenograft mouse model tumor volumes (A) and body weights (B) were recorded every two or three days. All values represent mean ± SEM.
All experimental procedures involving animals were performed in accordance with the ethical guidelines from Shanghai Laboratory Animal Public Service Center and Animal Ethics Committee of the East China University of Science and Technology. The whole experimental protocol was also approved by the Animal Ethics Committee of the East China University of Science and Technology. All 4–6 weeks old nude mice were purchased from Shanghai Slac Laboratory Animal Co. Ltd (The license of experimental animal: SCXK (shanghai) 2012–0002). The mice were maintained under the 12 hour light/dark cycles condition in the specific pathogen free (SPF) cleanroom with fresh air (more than 50%), appropriate temperature (22–26 °C) and humidness (40–60%). All materials and containers were disinfected and sterilized before use. Nude mice, aged 4–6 weeks, were inoculated subcutaneously into the right flank with H1975 NSCLC cells (approximately 2 × 10^6 cells/mouse). When the tumor size reached a volume of ~200−400 mm^3, animals were randomly assigned into control and treated groups (n = 3/group). […] The sizes of tumor volume (V) were measured every two or three days by using vernier caliper, and were calculated with the formula V = (L × W^2)/2, where L and W stands for length and width, respectively.

Series [7] addresses T2, EGFR^L858R/T790M. On the set-up: method as in PMID 27396610. As to conditions: previously reported; cited from earlier work.

T1 sequence (P00533 712-979 limits assumed): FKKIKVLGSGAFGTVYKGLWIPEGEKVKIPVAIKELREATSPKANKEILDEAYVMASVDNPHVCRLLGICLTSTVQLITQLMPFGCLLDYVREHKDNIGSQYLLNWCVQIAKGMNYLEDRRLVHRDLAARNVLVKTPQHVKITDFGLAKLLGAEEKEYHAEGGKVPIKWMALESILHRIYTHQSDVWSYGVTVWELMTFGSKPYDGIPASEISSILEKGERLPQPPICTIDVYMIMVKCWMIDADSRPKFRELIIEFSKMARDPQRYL

On to `C=CC(=O)Nc1cccc(N2C(=O)OC(C)c3cnc(Nc4ccc(N5CCN(C)CC5)cc4OC)nc32)c1` (centres unmarked) [16a, N-(3-(7-((2-Methoxy-4-(4-methylpiperazin-1-yl)phenyl)amino)-4-methyl-2-oxo-2H-pyrimido[4,5-d][1,3]oxazin-1(4H)-yl)phenyl)acrylamide], for which the IC50 was 38 nM on EGFR^WT, 5.4 nM on EGFR^L858R/T790M [1], 821 ± 162 nM in series [2] and 400 ± 257 nM in series [3]. Further, the “Enzyme Selectivity WT:DM” value at EGFR^L858R/T790M [1] was 4–7 fold and 7 fold. For the same compound, in series [3], the “Cellular Selectivity A431:H1975” value is 2.1 fold.
For the compound `C=CC(=O)Nc1cccc(N2C(=O)OC(CC)c3cnc(Nc4ccc(N5CCN(C)CC5)cc4OC)nc32)c1` (centres unmarked) [16b, N-(3-(4-Ethyl-7-((2-methoxy-4-(4-methylpiperazin-1-yl)phenyl)amino)-2-oxo-2H-pyrimido[4,5-d][1,3]oxazin-1(4H)-yl)phenyl)acrylamide], the IC50 at EGFR^WT was determined as 23 ± 10 nM; on EGFR^L858R/T790M [1], 6.1 nM; in series [2], 554 ± 285 nM; in series [3] it was 200 ± 83 nM. Further, at EGFR^L858R/T790M [1], the “Enzyme Selectivity WT:DM” value was 4–7 fold and 3.8 fold. In addition, the “Cellular Selectivity A431:H1975” value in series [3] turned out to be 2.8 fold.
On to `C=CC(=O)Nc1cccc(N2C(=O)OC(CCC)c3cnc(Nc4ccc(N5CCN(C)CC5)cc4OC)nc32)c1` (centres unmarked) [16c, N-(3-(7-((2-Methoxy-4-(4-methylpiperazin-1-yl)phenyl)amino)-2-oxo-4-propyl-2H-pyrimido[4,5-d][1,3]oxazin-1(4H)-yl)phenyl)acrylamide], for which the IC50 at EGFR^WT came out at 224 ± 41 nM; at EGFR^L858R/T790M [1], 158 ± 27 nM; in series [2] it was 2110 ± 877 nM; in series [3] it was 1340 ± 791 nM. Also, the “Enzyme Selectivity WT:DM” value at EGFR^L858R/T790M [1] is 1.4 fold. For the same compound, in series [3], the “Cellular Selectivity A431:H1975” value is given as 1.6 fold.
Turning to `C=CC(=O)Nc1cccc(N2C(=O)OC(C(C)C)c3cnc(Nc4ccc(N5CCN(C)CC5)cc4OC)nc32)c1` (centres unmarked) [16d, N-(3-(7-((2-Methoxy-4-(4-methylpiperazin-1-yl)phenyl)amino)-2-oxo-4-isopropyl-2H-pyrimido[4,5-d][1,3]oxazin-1(4H)-yl)phenyl)acrylamide], the IC50 on EGFR^WT came to 183 ± 47 nM; at EGFR^L858R/T790M [1], 217 ± 86 nM; in series [2] it was 1160 ± 279 nM; in series [3], 1110 ± 748 nM. Further, the “Enzyme Selectivity WT:DM” value on EGFR^L858R/T790M [1] worked out at 0.8 fold. In addition, the “Cellular Selectivity A431:H1975” value in series [3] is recorded as 1.0 fold.
Take `C=CC(=O)Nc1cccc(N2C(=O)OCc3cnc(Nc4ccc(N5CCN(C)CC5)cc4OC)nc32)c1` [16e, N-(3-(7-((2-Methoxy-4-(4-methylpiperazin-1-yl)phenyl)amino)-2-oxo-2H-pyrimido[4,5-d][1,3]oxazin-1(4H)-yl)phenyl)acrylamide]: the IC50 on EGFR^WT is 24 nM; on EGFR^L858R/T790M [1], 7.3 nM; in series [2], 1070 ± 241 nM; in series [3], 222 ± 84 nM. Also, at EGFR^L858R/T790M [1], the “Enzyme Selectivity WT:DM” value is 3.3 fold. Besides, the “Cellular Selectivity A431:H1975” value in series [3] is reported as 4.8 fold.
Take `C=CC(=O)Nc1cccc(N2C(=O)OC(C)(C)c3cnc(Nc4ccc(N5CCN(C)CC5)cc4OC)nc32)c1` [20a, N-(3-(7-((2-Methoxy-4-(4-methylpiperazin-1-yl)phenyl)amino)-4,4-dimethyl-2-oxo-2H-pyrimido[4,5-d][1,3]oxazin-1(4H)-yl)phenyl)acrylamide]: at EGFR^WT, the IC50 was found to be 156 nM. Also, on EGFR^L858R/T790M [1], the IC50 worked out at 4.5 nM and the “Enzyme Selectivity WT:DM” value is on record as approximately 35 fold. The IC50 in series [2] turned out to be 1270 nM. Besides, in series [3], the IC50 came to 135 nM and the “Cellular Selectivity A431:H1975” value was 9.4 fold. In series [4], the “concentration inhibiting ERK phosphorylation” value worked out at 100 nM, the “concentration inhibiting phosphorylation of AKT” value worked out at 10 nM and the “concentration inhibiting phosphorylation of EGFR^L858R/T790M” value turned out to be 10 nM. In series [5], the “concentration at which obvious effect on EGFR activation appears” value amounted to 1 µM. Further, the “tumor growth inhibition (TGI)” value in series [6] came to 71%. The “effect on body weight / tolerability” value in series [6] (50 mg/kg/day orally) is on record as “no obvious effect on the body weight”.
For `C=CC(=O)Nc1cccc(N2C(=O)OC(CC)(CC)c3cnc(Nc4ccc(N5CCN(C)CC5)cc4OC)nc32)c1` [20b, N-(3-(4,4-Diethyl-7-((2-methoxy-4-(4-methylpiperazin-1-yl)phenyl)amino)-2-oxo-2H-pyrimido[4,5-d][1,3]oxazin-1(4H)-yl)phenyl)acrylamide], the IC50 at EGFR^WT is more than 1000 nM; on EGFR^L858R/T790M [1] it was more than 1000 nM; in series [2], 7040 ± 455 nM; in series [3], 3710 ± 1370 nM. Further, the “Cellular Selectivity A431:H1975” value in series [3] is on record as 1.9 fold.
As for `C=CC(=O)Nc1cccc(N2C(=O)OC(CCC)(CCC)c3cnc(Nc4ccc(N5CCN(C)CC5)cc4OC)nc32)c1` [20c, N-(3-(7-((2-Methoxy-4-(4-methylpiperazin-1-yl)phenyl)amino)-2-oxo-4,4-dipropyl-2H-pyrimido[4,5-d][1,3]oxazin-1(4H)-yl)phenyl)acrylamide], the IC50 at EGFR^WT is more than 1000 nM; at EGFR^L858R/T790M [1], more than 1000 nM; in series [2], 6400 ± 349 nM; in series [3] it was 9390 ± 1740 nM. In series [3], the “Cellular Selectivity A431:H1975” value is 0.7 fold.
`C=CC(=O)Nc1cccc(Nc2nc(Nc3ccc(N4CCN(C(C)=O)CC4)cc3OC)ncc2C(F)(F)F)c1` [compound 7, CO-1686, reference compound]: the IC50 in series [2] amounted to 1120 ± 117 nM; in series [3] it was 73 ± 21 nM. Moreover, in series [6], the “tumor growth inhibition (TGI)” value stood at 72%.
Take `C=CC(=O)Nc1cccc(-n2c(=O)c(=O)n(C)c3cnc(Nc4ccc(N5CCN(C)CC5)cc4OC)nc32)c1` [compound 9]: the “selectivity EGFR^L858R/T790M kinase over EGFR^WT kinase” value on EGFR^L858R/T790M [7] is given as 101 fold.

(Values after article PMC5476563, “Structure-Guided Design of C4-alkyl-1,4-dihydro-2H-pyrimido[4,5-d][1,3]oxazin-2-ones as Potent and Mutant-Selective Epidermal Growth Factor Receptor (EGFR) L858R/T790M Inhibitors” (Scientific Reports, 2017).)
